# Source: patent publication US20050209157A1, “Short bioactive peptides and methods for their use” (priority 2001, published 2005)
# Read-outs that look alike come from different tables or passages of the source. No end group written: not given here.
# Legend:
# [1] = test system: Pseudomonas aeruginosa ATCC 9027; assay: Antimicrobial assay I, MIC by OD measurement; assay type: cell-based; conditions: 37° C. for 24 hours, absorbance 620 nm
# [2] = test system: Staphylococcus aureus ATCC 6538; assay: Antimicrobial assay I, MIC by OD measurement; assay type: cell-based; conditions: 37° C. for 24 hours, absorbance 620 nm
# [3] = test system: yeast (Saccharomyces cerevisiae); assay: Antimicrobial assay I, yeast assay in RPMI 1640; assay type: cell-based; conditions: RPMI 1640 media
# [4] = test system: BMKC; assay: Anti-cancer assay, MTT, LD50; assay type: cell-based; conditions: BMKC cloned melanoma line, 24 hours with peptide
# Text: (§1) Numbers are LD50 values (μg/mL).
# [5] = test system: H1299; assay: Anti-cancer assay, MTT, LD50; assay type: cell-based; conditions: 24 hours with peptide, lung large cell carcinoma
# Text: as §1
# [6] = test system: HeLaS3; assay: Anti-cancer assay, MTT, LD50; assay type: cell-based; conditions: 24 hours with peptide, cervical carcinoma
# Text: as §1
# [7] = test system: MCF7; assay: Anti-cancer assay, MTT, LD50; assay type: cell-based; conditions: MCF7 breast adenocarcinoma line, MTT, 24 hours with peptide
# Text: as §1
# [8] = test system: PC3; assay: Anti-cancer assay, MTT, LD50; assay type: cell-based; conditions: 24 hours with peptide, prostate adenocarcinoma
# Text: as §1
# [9] = test system: SW480; assay: Anti-cancer assay, MTT, LD50; assay type: cell-based; conditions: SW480 colon adenocarcinoma line, 24 hours with peptide
# Text: as §1
# [10] = in vitro; assay type: cell-based, human; conditions: human, human red blood cells, pH 7, hemolytic assay, concentration at 50% hemolysis, 1 hour at 37° C.; read-out: LD50
# [11] = test system: collagen; assay: Collagen stimulation, ELISA on fibroblast cell lines; assay type: cell-based
# Procedure: (§2) Fibroblast cell lines were cultured under standard conditions and assayed for collagen and laminin using an ELISA system manufactured by Panvera (Madison, Wis.). Antibodies for collagen and laminin manufactured by Takara Shuzo Co., Ltd Japan. […] The other three peptides tested neither stimulated nor inhibited production (i.e. no effect was observed).
# [12] = test system: laminin; assay: Laminin stimulation, ELISA on fibroblast cell lines; assay type: cell-based
# Procedure: as §2
# [13] = test system: WI38; conditions: MTT, 24 hours with peptide; normal fibroblast line
# [14] = in vitro; conditions: human, WI38 normal lung fibroblast cells, LD50 WI38, WI38 normal lung fibroblast line, MTT, 24 hours with peptide
# [15] = test system: human red blood cells (RBC); assay: in vitro; assay type: cell-based; conditions: hemolytic assay, concentration at 50% hemolysis, 1 hour at 37° C.
# [16] = test system: clinical tobramycin resistant strain 960890198-3c; assay: Activity against drug resistant strains; assay type: cell-based; conditions: for activity against clinical tobramycin resistant strain: strain 960890198-3c; for activity against tr Pseudomonas 960890198-3c: clinical tobramycin resistant strain, Table 47
# Procedure: (§3) Peptides were assayed for their activity against tobramycin sensitive and resistant strains.
# [17] = test system: tobramycin resistant (tr) Pseudomonas ATCC 13096; assay: Activity against drug resistant strains; assay type: cell-based; conditions: for activity against tobramycin resistant versus tobramycin sensitive Pseudomonas: ATCC 13096 (tr) compared with ATCC 27853 (ts); for activity against tr Pseudomonas 13096: tobramycin resistant strain, Table 46
# Procedure: as §3
# [18] = test system: tobramycin sensitive (ts) Pseudomonas ATCC 27853; assay: Activity against drug resistant strains; assay type: cell-based; conditions: tobramycin sensitive strain
# Procedure: as §3
# [19] = test system: P. aeruginosa 27853; assay: Synergy between doxacycline and peptides, MBC; assay type: cell-based, Pseudomonas aeruginosa; conditions: for MBC, With doxacycline: doxacycline held at 10 ppm; for MBC, Without doxacycline: peptide alone
# Text: Synergy between doxacycline and various peptides was investigated against P. aeruginosa 27853. The following table illustrates the beneficial effects of combining doxacycline and the peptides, where the numbers are the minimum bactericidal concentration (MBC; μg/mL). When combined with the peptides, the doxacycline was held at 10 ppm concentration.
# [20] = test system: P. aeruginosa H374; assay type: cell-based, Pseudomonas aeruginosa; conditions: for FIC Index: 0.5 or less = synergy
# Outline: (§4)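 Efflux-mutant strains were tested with two-fold serial dilutions of chloramphenicol or nalidixic acid, alone and with peptide held at ¼ of its own MIC.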
# [21] = test system: P. aeruginosa H774; assay type: cell-based, Pseudomonas aeruginosa; conditions: P. aeruginosa H744; nalidixic acid + peptide at ¼ MIC; 0.5 or less = synergy
# Outline: as §4
# [22] = test system: P. aeruginosa; assay type: cell-based, Pseudomonas aeruginosa; conditions: P. aeruginosa H744; MIC of nalidixic acid with peptide at ¼ MIC
# Outline: as §4
# [23] = test system: Escherichia coli 25922; assay: microbe, parasite or virus in culture
# Text: Synergy between peptide Shiva-10 (SEQ ID NO:4) and various antimicrobial agents was investigated against Escherichia coli 25922.
# Synergy between tetracycline and various peptides was investigated against Escherichia coli 25922 MBC. […] When combined with the peptides, the concentration of tetracycline was held at 1.5 ppm.
Compound,paerug9027 (MIC) [1],staph6538 (MIC) [2],yeast (MIC or MFC) [3],LD50 BMKC [4],H1299 LD50 [5],HeLaS3 LD50 [6],LD50 MCF7 [7],PC3 LD50 [8],LD50 SW480 [9],WI38 LD50 [13],CC50 at 24 h [14],activity against clinical tobramycin resistant strain [16],activity against tobramycin resistant versus tobramycin sensitive Pseudomonas [17],activity against tr Pseudomonas 13096 [17],activity against ts Pseudomonas 27853 ([18]; Table 46),further results
FALALKALKKL-NH2 [P165],25 µg/mL,10 µg/mL,25 µg/mL,240 µg/mL,56 µg/mL,400 µg/mL,360 µg/mL,340 µg/mL,240 µg/mL,470 µg/mL,470 µg/mL,,,,,HC50 at 1 h [10]: 350 µg/mL; Collagen stimulation [11]: 0%; Laminin stimulation [12]: 0%
FAKLLAKLAKKIL-NH2 [P125],100 µg/mL,10 µg/mL,50 µg/mL,220 µg/mL,76 µg/mL,220 µg/mL,90 µg/mL,145 µg/mL,125 µg/mL,90 µg/mL,90 µg/mL,greater activity against clinical tobramycin resistant strain 960890198-3c,greater activity against tobramycin resistant (tr) Pseudomonas ATCC 13096 than against tobramycin sensitive (ts) Pseudomonas ATCC 27853,4,31,LD50 [15]: > (> indicates greater than 1000)
"FAKKLAKKLAKAL-NH2 [P74, FAKKLAKKLAKAL-NH2]",5 µg/mL,15 µg/mL,100 µg/mL,460 µg/mL,670 µg/mL,260 µg/mL,465 µg/mL,660 µg/mL,340 µg/mL,335 µg/mL,335 µg/mL,greater activity against clinical tobramycin resistant strain 960890198-3c,greater activity against tobramycin resistant (tr) Pseudomonas ATCC 13096 than against tobramycin sensitive (ts) Pseudomonas ATCC 27853,16,125,LD50 [15]: > (> indicates greater than 1000); activity against tr Pseudomonas 960890198-3c [16]: 25; activity against ts Pseudomonas 27853 ([18]; Table 47): 125
C[C@H]1c2cccc(O)c2C(O)=C2C(=O)[C@]3(O)C(O)=C(C(N)=O)C(=O)[C@@H](N(C)C)[C@@H]3[C@@H](O)[C@@H]21 [Doxacycline],,,,,,,,,,,,,,,,"MBC of doxacycline ([19]; doxacycline itself, printed in column With doxacycline): 100 µg/mL"
TGFβ,,,,,,,,,,,,,,,,Collagen stimulation [11]: 60%
FAKLLKLAAKKLL-NH2 [P56],5 µg/mL,200 µg/mL,50 µg/mL,205 µg/mL,370 µg/mL,300 µg/mL,500 µg/mL,435 µg/mL,215 µg/mL,250 µg/mL,250 µg/mL,greater activity against clinical tobramycin resistant strain 960890198-3c,greater activity against tobramycin resistant (tr) Pseudomonas ATCC 13096 than against tobramycin sensitive (ts) Pseudomonas ATCC 27853,16,125,"HC50 at 1 h [10]: 600 µg/mL; MIC Cm-comb. ([20]; MIC of chloramphenicol with peptide at ¼ MIC): 16 µg/mL; MIC Nal-comb. ([20]; MIC of nalidixic acid with peptide at ¼ MIC): 2500 µg/mL; FIC Index ([20]; chloramphenicol + peptide at ¼ MIC): 1.25; FIC Index ([20]; nalidixic acid + peptide at ¼ MIC, FIC=0.25+MIC comb/MIC alone): 0.75; FIC Index [21]: 1.25; MIC Nal-comb. [22]: 624 µg/mL; activity against tr Pseudomonas 960890198-3c [16]: >50; activity against ts Pseudomonas 27853 ([18]; Table 47): 125"
CC(C)C[C@H](NC(=O)[C@H](C)NC(=O)[C@H](CC(C)C)NC(=O)[C@H](CCCCN)NC(=O)[C@H](C)NC(=O)[C@H](CC(C)C)NC(=O)[C@H](CCCCN)NC(=O)[C@H](CCCCN)NC(=O)[C@H](C)NC(=O)[C@H](CC(C)C)NC(=O)[C@H](CCCCN)NC(=O)[C@H](C)NC(=O)[C@H](CC(C)C)NC(=O)[C@H](CCCCN)NC(=O)[C@H](CCCCN)NC(=O)[C@H](C)NC(=O)[C@@H](N)Cc1ccccc1)C(N)=O [FLAK 26AM (P35; SEQ ID NO: 17)],,,,,,,,,,,,,,,,"MBC, Without tetracycline ([23]; peptide alone): 50 µg/mL; MBC, With tetracycline ([23]; tetracycline held at […]): 20 µg/mL; MBC, With doxacycline [19]: 32 µg/mL; MBC, Without doxacycline [19]: 50 µg/mL"
MPKWKVFKKIEKVGRNIRNGIVKAGPAIAVLGEAKALG-OH [SB-37 (P5; SEQ ID NO: 3)],,,,,,,,,,,,,,,,"MBC, With doxacycline [19]: 30 µg/mL; MBC, Without doxacycline [19]: 200 µg/mL"
